Data published in patent US8361740B2, “Peptide standards” (King's College London, priority 2007, dated 2013).
Non-standard residues stand in square brackets, D forms with d. No end group written: not given here. K∗ = stable isotope labelled lysine

Tested on: trypsin
Assay: Tryptic digestion of peptide standards, released T6 peptide (LVNEVTEFAK) measured by LC-MSMS (MRM)
Format: biochemical
Details: for IS Peak Area (counts): LVNEVTEFAK* signal, internal std + digested peptide 8; for Analyte Peak Area (counts): trypsin 37° C. 30 min
Source text: The first experiment was test the hypothesis that the LVNEVTEFAKT (SEQ ID NO:7) peptide is cleaved to LVNEVTEFAK (SEQ ID NO:10) by trypsin as efficiently as the longer peptides. Using LVNEVTEFAK* (SEQ ID NO:10) as the internal standard peptides (1-5, and 8) were digested using standard protocol. […] This implies that any internal standard peptide where cysteine is the N-terminal amino acid will require the next amino acid in addition to be effective.
Experiment to Determine Number of Amino Acids Required Following Trypsin Digest Site for Digestion.
Assay 50 μl peptide 1-6 & 8 (blank was deionised water)+50 μl internal std Add 10 μl acetonitrile & 10 μl 1% formic acid, vortex mix, and stand for 5 min Add 6 μl […] ammonium bicarbonate & 5 μl trypsin (5 mg/l), vortex mix, and pulse centrifuge (6 sec) Incubate at 37° C. for 30 min & add 500 μl HPLC solvent (acetonitrile:water 1:1 with 0.025% formic acid) Vortex mix and transfer to 96-deep well polypropylene plate Sample volume, 5 μl; flow rate, 500 μl/min Chromatography—teicoplanin guard column MSMS parameters—generic peptide ionisation and doubly charged ion fragmentation T6 doubly charged ion m/z 575.4 and internal std m/z 579.4 Product ions (m/z): 937.4, 823.4, 694.4—internal std (m/z): 945.4, 831.4, 702.4 (150 ms/MRM) Results

Substance: LVNEVTEFAK*T (LVNEVTEFA[K∗]T) [peptide 8]
- signal for LVNEVTEFAK after tryptic digestion (3 different MRMs, LVNEVTEFAK* as internal standard): no signal
- LVNEVTEFAK* signal after tryptic digestion (LVNEVTEFAK* as internal standard): increased by the expected amount
- Internal standard area Ratio (IS + peptide 8 / Mean (Blank, 1-6)) (T6 694): 1.87
- IS Peak Area (counts) (T6 694 transition): 238000 counts
- Internal standard area Ratio (IS + peptide 8 / Mean (Blank, 1-6)) (T6 823): 1.80
- IS Peak Area (counts) (T6 823 transition): 83000 counts
- Internal standard area Ratio (IS + peptide 8 / Mean (Blank, 1-6)) (T6 937): 1.91
- IS Peak Area (counts) (T6 937 transition): 253000 counts
- Analyte Peak Area (counts) (analyte T6 694 (m/z 575.4/694.4)): 149 counts
- Area Ratio (analyte T6 694 / internal std LVNEVTEFAK*): 0.00062
- Analyte Peak Area (counts) (analyte T6 823 (m/z 575.4/823.4)): 62 counts
- Area Ratio (analyte T6 823 / internal std LVNEVTEFAK*): 0.00074
- Analyte Peak Area (counts) (analyte T6 937 (m/z 575.4/937.4)): 147 counts
- Area Ratio (analyte T6 937 / internal std LVNEVTEFAK*): 0.00058
- recovery after tryptic digestion (within the limits of the experiment): full recovery
